Among the data in US20120121591A1 (priority 2009, published 2012) are IC50 values, retold here.

Common to all, as to type: cell-based
One test concerns the target hKv1.3 (Homo sapiens, UniProt P22001). Nature of the test: cell-based. The settings on record: Kv1.3 (IWQ) IC50 (nM, Avg).
In test [1] the test system is IL-2 secretion from T cells in human whole blood. To be noted: read-out: WB (IL-2) IC50 (nM, Avg).
The subject of test [2] is IFN-g secretion from T cells in human whole blood. The settings on record: read-out: WB (IFNg) IC50 (nM, Avg).

Each structure is given as a SMILES string.

Chain of hKv1.3 (P22001 whole entry): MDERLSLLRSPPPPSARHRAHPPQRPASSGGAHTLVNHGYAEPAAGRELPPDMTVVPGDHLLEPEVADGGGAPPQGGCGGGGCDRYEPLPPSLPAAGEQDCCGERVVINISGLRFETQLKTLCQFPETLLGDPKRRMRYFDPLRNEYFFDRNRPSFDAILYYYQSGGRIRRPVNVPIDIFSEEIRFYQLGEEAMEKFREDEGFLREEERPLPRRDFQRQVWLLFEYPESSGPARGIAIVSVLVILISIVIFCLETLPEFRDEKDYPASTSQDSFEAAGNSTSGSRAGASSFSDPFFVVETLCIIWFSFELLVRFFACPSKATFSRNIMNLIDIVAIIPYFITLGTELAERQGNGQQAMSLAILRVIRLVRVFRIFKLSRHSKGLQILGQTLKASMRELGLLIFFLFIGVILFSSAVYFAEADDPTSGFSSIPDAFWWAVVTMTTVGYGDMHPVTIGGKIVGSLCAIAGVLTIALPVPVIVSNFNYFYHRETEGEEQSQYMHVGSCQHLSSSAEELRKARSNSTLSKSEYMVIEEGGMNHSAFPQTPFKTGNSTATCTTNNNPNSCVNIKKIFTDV

What is called IC50 is the concentration that gives 50% inhibition. Turning to `CC[C@H](C)[C@@H]1NC(=O)[C@@H](NC(=O)[C@H](CO)NC(=O)[C@@H](N)CCCNC(=N)N)CSSC[C@@H](C(N)=O)NC(=O)[C@H]([C@@H](C)O)NC(=O)CNC(=O)[C@@H]2CSSC[C@@H]3NC(=O)[C@H](CCCCN)NC(=O)[C@H](Cc4ccccc4)NC(=O)[C@H](C)NC(=O)[C@H]([C@@H](C)O)NC(=O)[C@H](CSSC[C@H](NC(=O)[C@H](Cc4ccccc4)NC(=O)[C@H](Cc4ccc(O)cc4)NC(=O)[C@H](CC(C)C)NC(=O)[C@H](CCCNC(=N)N)NC(=O)[C@H](Cc4ccc(O)cc4)NC(=O)[C@H](CCCCN)NC(=O)[C@H](CCSC)NC(=O)[C@H](CO)NC(=O)[C@H](Cc4c[nH]cn4)NC(=O)[C@H](CCCCN)NC3=O)C(=O)N[C@@H](CCCCN)C(=O)N[C@@H](CCCCN)C(=O)N[C@@H]([C@@H](C)O)C(=O)N2)NC(=O)[C@H](CCCNC(=N)N)NC(=O)[C@H](CO)NC(=O)[C@H](CCCCN)NC(=O)[C@@H]2CCCN2C(=O)[C@H]([C@@H](C)CC)NC(=O)[C@H]([C@@H](C)O)NC(=O)[C@H](CC(=O)O)NC1=O` [[Lys16,29;Tyr26]ShK-amide], the IC50 stood at 0.084 nM at hKv1.3, 1.04 nM in test [1] and 0.754 nM in test [2].

In the case of `CC[C@H](C)[C@@H]1NC(=O)[C@@H](NC(=O)[C@H](CO)NC(=O)[C@@H](N)CCCNC(=N)N)CSSC[C@@H](C(N)=O)NC(=O)[C@H]([C@@H](C)O)NC(=O)CNC(=O)[C@@H]2CSSC[C@@H]3NC(=O)[C@H](CCCCN)NC(=O)[C@H](Cc4ccccc4)NC(=O)[C@H](C)NC(=O)[C@H]([C@@H](C)O)NC(=O)[C@H](CSSC[C@H](NC(=O)[C@H](Cc4ccc(O)cc4)NC(=O)[C@H](CO)NC(=O)[C@H](CC(C)C)NC(=O)[C@H](CCCNC(=N)N)NC(=O)[C@H](Cc4ccc(O)cc4)NC(=O)[C@H](CCCCN)NC(=O)[C@H](CCSC)NC(=O)[C@H](CO)NC(=O)[C@H](Cc4c[nH]cn4)NC(=O)[C@H](CCCCN)NC3=O)C(=O)N[C@@H](CCCCN)C(=O)N[C@@H](CCCCN)C(=O)N[C@@H]([C@@H](C)O)C(=O)N2)NC(=O)[C@H](CCCNC(=N)N)NC(=O)[C@H](CO)NC(=O)[C@H](CCCCN)NC(=O)[C@@H]2CCCN2C(=O)[C@H]([C@@H](C)CC)NC(=O)[C@H]([C@@H](C)O)NC(=O)[C@H](CC(=O)O)NC1=O` [[Lys16,29;Tyr27]ShK-amide], the IC50 on hKv1.3 amounted to 0.042 nM; in test [1] it was 0.738 nM; in test [2], 1.17 nM.

Turning to `CC[C@H](C)[C@@H]1NC(=O)[C@@H](NC(=O)[C@H](CO)NC(=O)[C@@H](N)CCCNC(=N)N)CSSC[C@@H](C(N)=O)NC(=O)[C@H]([C@@H](C)O)NC(=O)CNC(=O)[C@@H]2CSSC[C@@H]3NC(=O)[C@H](CCCCN)NC(=O)[C@H](Cc4ccccc4)NC(=O)[C@H](C)NC(=O)[C@H]([C@@H](C)O)NC(=O)[C@H](CSSC[C@H](NC(=O)[C@H](Cc4ccc5ccccc5c4)NC(=O)[C@H](CO)NC(=O)[C@H](CC(C)C)NC(=O)[C@H](CCCNC(=N)N)NC(=O)[C@H](Cc4ccc(O)cc4)NC(=O)[C@H](CCCCN)NC(=O)[C@H](CCSC)NC(=O)[C@H](CO)NC(=O)[C@H](Cc4c[nH]cn4)NC(=O)[C@H](CCCCN)NC3=O)C(=O)N[C@@H](CCCCN)C(=O)N[C@@H](CCCCN)C(=O)N[C@@H]([C@@H](C)O)C(=O)N2)NC(=O)[C@H](CCCNC(=N)N)NC(=O)[C@H](CO)NC(=O)[C@H](CCCCN)NC(=O)[C@@H]2CCCN2C(=O)[C@H]([C@@H](C)CC)NC(=O)[C@H]([C@@H](C)O)NC(=O)[C@H](CC(=O)O)NC1=O` [[Lys16, 29;2-Nal27]ShK-amide], the IC50 worked out at 10.1 nM against hKv1.3, 13.1 nM in test [1] and 24.7 nM in test [2].

Consider `CCCC[C@@H]1NC(=O)[C@H](CO)NC(=O)[C@H](Cc2c[nH]cn2)NC(=O)[C@H](CCCCN)NC(=O)[C@@H]2CSSC[C@@H]3NC(=O)[C@H]([C@@H](C)O)NC(=O)[C@H](C)NC(=O)[C@H](CCCCN)NC(=O)[C@H](CSSC[C@H](NC(=O)[C@H](CCCNC(=N)N)NC(=O)[C@H](CO)NC(=O)[C@H](CCCCN)NC(=O)[C@@H]4CCCN4C(=O)[C@H]([C@@H](C)CC)NC(=O)[C@H]([C@@H](C)O)NC(=O)[C@H](CC(=O)O)NC(=O)[C@H]([C@@H](C)CC)NC(=O)[C@@H](NC(=O)[C@H](CO)NC(=O)[C@@H](N)CCCNC(=N)N)CSSC[C@@H](C(N)=O)NC(=O)[C@H]([C@@H](C)O)NC(=O)CNC3=O)C(=O)N[C@@H]([C@@H](C)O)C(=O)N[C@@H](C)C(=O)N[C@@H](Cc3ccccc3)C(=O)N[C@@H](CCCCN)C(=O)N2)NC(=O)[C@H](Cc2ccccc2)NC(=O)[C@H](CO)NC(=O)[C@H](CC(C)C)NC(=O)[C@H](CCCNC(=N)N)NC(=O)[C@H](Cc2ccc(O)cc2)NC(=O)[C@H](CCCCN)NC1=O` [[Lys16, 29; Ala30,Nle21]ShK-amide], for which the IC50 turned out to be 0.057 nM against hKv1.3, 0.791 nM in test [1] and 1.7 nM in test [2].

`CC[C@H](C)[C@@H]1NC(=O)[C@@H](NC(=O)[C@H](CO)NC(=O)[C@@H](N)CCCNC(=N)N)CSSC[C@@H](C(N)=O)NC(=O)[C@H]([C@@H](C)O)NC(=O)CNC(=O)[C@@H]2CSSC[C@@H]3NC(=O)[C@H](CCCCN)NC(=O)[C@H](Cc4ccccc4)NC(=O)[C@H](C)NC(=O)[C@H]([C@@H](C)O)NC(=O)[C@H](CSSC[C@H](NC(=O)[C@H](Cc4ccccc4)NC(=O)[C@H](CO)NC(=O)[C@H](CC(C)C)NC(=O)[C@H](CCCNC(=N)N)NC(=O)[C@H](Cc4ccc(O)cc4)NC(=O)[C@H](CCCCN)NC(=O)[C@H](CCSC)NC(=O)[C@H](CO)NC(=O)[C@H](Cc4c[nH]cn4)NC(=O)[C@H](CCCCN)NC3=O)C(=O)N[C@@H](CCCCN)C(=O)N[C@@H](C)C(=O)N[C@@H]([C@@H](C)O)C(=O)N2)NC(=O)[C@H](CCCNC(=N)N)NC(=O)[C@H](CO)NC(=O)[C@H](CCCCN)NC(=O)[C@@H]2CCCN2C(=O)[C@H]([C@@H](C)CC)NC(=O)[C@H]([C@@H](C)O)NC(=O)[C@H](CC(=O)O)NC1=O` [[Lys16, 29;A1a30]ShK-amide]: the IC50 against hKv1.3 stood at 0.197 nM; in test [1], 0.186 nM; in test [2], 0.289 nM.

Take `CC[C@H](C)[C@@H]1NC(=O)[C@@H](NC(=O)[C@H](CO)NC(=O)[C@@H](N)CCCNC(=N)N)CSSC[C@@H](C(N)=O)NC(=O)[C@H]([C@@H](C)O)NC(=O)CNC(=O)[C@@H]2CSSC[C@@H]3NC(=O)[C@H](CCCCN)NC(=O)[C@H](Cc4ccccc4)NC(=O)[C@H](C)NC(=O)[C@H]([C@@H](C)O)NC(=O)[C@H](CSSC[C@H](NC(=O)[C@H](Cc4ccccc4)NC(=O)[C@H](CO)NC(=O)[C@H](CC(C)C)NC(=O)[C@H](CCCNC(=N)N)NC(=O)[C@H](Cc4ccc(O)cc4)NC(=O)[C@H](CCCCN)NC(=O)[C@H](CCSC)NC(=O)[C@H](CO)NC(=O)[C@H](Cc4c[nH]cn4)NC(=O)[C@H](CCCNC(=N)N)NC3=O)C(=O)N[C@@H](CCCCN)C(=O)N[C@@H](CCCNC(=N)N)C(=O)N[C@@H]([C@@H](C)O)C(=O)N2)NC(=O)[C@H](CCCNC(=N)N)NC(=O)[C@H](CO)NC(=O)[C@H](CCCCN)NC(=O)[C@@H]2CCCN2C(=O)[C@H]([C@@H](C)CC)NC(=O)[C@H]([C@@H](C)O)NC(=O)[C@H](CC(=O)O)NC1=O` [[Lys16, 29;Arg18,30]ShK-amide]: the values for the IC50 (against hKv1.3; in test [1]; in test [2]) were 0.401 nM, 0.26 nM and 0.242 nM, respectively.
